Source: ChEMBL document CHEMBL1681690, “Discovery of TAK-733, a potent and selective MEK allosteric site inhibitor for the treatment of cancer” (Bioorg Med Chem Lett, 2011)
The source made the active and inactive calls. The calls are words filed in the database; no cut-off is given here.

What was measured:
[1] = test system: A-375; assay: Cytotoxicity against human A375 cells after 72 hrs by MTS assay; details: A-375, 72 h
[2] = test system: COLO 205; assay: Cytotoxicity against human COLO205 cells after 72 hrs by MTS assay; details: COLO 205, 72 h
[3] = Half life in human liver microsomes; type: ADME, Microsome
[4] = Half life in rat liver microsomes; type: ADME, Microsome
[5] = target: Dual specificity mitogen-activated protein kinase kinase 1 (Homo sapiens, UniProt Q02750)
Dual specificity mitogen-activated protein kinase kinase 1, sequence (Q02750 whole entry): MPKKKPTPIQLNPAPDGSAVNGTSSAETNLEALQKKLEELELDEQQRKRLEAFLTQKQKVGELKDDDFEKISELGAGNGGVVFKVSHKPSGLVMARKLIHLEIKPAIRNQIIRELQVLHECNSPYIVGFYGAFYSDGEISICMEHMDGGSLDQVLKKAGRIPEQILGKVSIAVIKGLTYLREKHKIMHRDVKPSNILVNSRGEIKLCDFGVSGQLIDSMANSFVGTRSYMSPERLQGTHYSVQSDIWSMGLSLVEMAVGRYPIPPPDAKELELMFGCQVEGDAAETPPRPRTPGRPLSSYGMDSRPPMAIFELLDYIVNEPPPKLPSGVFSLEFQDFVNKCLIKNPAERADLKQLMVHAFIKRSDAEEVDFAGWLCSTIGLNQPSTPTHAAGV
Description: Inhibition of MEK1 by IMAP assay

[6] = Plasma protein binding in human; type: ADME, cell-free; details: read-out: PPB (converted)
[7] = Plasma protein binding in mouse; type: ADME, cell-free; details: read-out: PPB (converted)
[8] = Inhibition of CYP450 up to 30 uM; type: ADME
[9] = Clearance in mouse at 1.4 mg/kg, iv and […] mg/kg, po; type: ADME, organism-based; details: in vivo
[10] = Volume of distribution at steady state in mouse at 1.4 mg/kg, iv and […], po; type: ADME, organism-based; details: in vivo, read-out: Vdss
[11] = Mean residence time in mouse at 1.4 mg/kg, iv; type: ADME, organism-based; design: dose 1.4 mg/kg, route intravenous; details: in vivo
[12] = Mean residence time in mouse at […], po; type: ADME, organism-based; design: dose 7.8 mg/kg, route oral; details: in vivo
[13] = Oral bioavailability in mouse at […]; type: ADME, organism-based; details: in vivo
[14] = Clearance in rat at 1 mg/kg, iv and 4.2 mg/kg, po; type: ADME, organism-based; details: in vivo
[15] = Volume of distribution at steady state in rat at 1 mg/kg, iv and 4.2 mg/kg, po; type: ADME, organism-based; details: in vivo, read-out: Vdss
[16] = Mean residence time in rat at 1 mg/kg, iv; type: ADME, organism-based; design: dose 1 mg/kg, route intravenous; details: in vivo
[17] = Mean residence time in rat at 4.2 mg/kg, po; type: ADME, organism-based; design: dose 4.2 mg/kg, route oral; details: in vivo
[18] = Oral bioavailability in rat at 4.2 mg/kg; type: ADME, organism-based; details: in vivo
[19] = Clearance in dog at 0.6 mg/kg, iv and 2.3 mg/kg, po; type: ADME, organism-based, Canis lupus familiaris; details: in vivo
[20] = Volume of distribution at steady state in dog at 0.6 mg/kg, iv and 2.3 mg/kg, po; type: ADME, organism-based, Canis lupus familiaris; details: in vivo, read-out: Vdss
[21] = Mean residence time in dog at 0.6 mg/kg, iv; type: ADME, organism-based, Canis lupus familiaris; design: dose 0.6 mg/kg, route intravenous; details: in vivo
[22] = Mean residence time in dog at 2.3 mg/kg, po; type: ADME, organism-based, Canis lupus familiaris; design: dose 2.3 mg/kg, route oral; details: in vivo
[23] = Oral bioavailability in dog at 2.3 mg/kg; type: ADME, organism-based, Canis lupus familiaris; details: in vivo
[24] = Clearance in monkey at 0.5 mg/kg, iv and 2 mg/kg, po; type: ADME, organism-based, Macaca mulatta; details: rhesus monkey, in vivo
[25] = Volume of distribution at steady state in monkey at 0.5 mg/kg, iv and 2 mg/kg, po; type: ADME, organism-based, Macaca mulatta; details: rhesus monkey, in vivo, read-out: Vdss
[26] = Mean residence time in monkey at 0.5 mg/kg, iv; type: ADME, organism-based, Macaca mulatta; design: dose 0.5 mg/kg, route intravenous; details: rhesus monkey, in vivo
[27] = Mean residence time in monkey at 2 mg/kg, po; type: ADME, organism-based, Macaca mulatta; design: dose 2 mg/kg, route oral; details: rhesus monkey, in vivo
[28] = Oral bioavailability in monkey at 2 mg/kg; type: ADME, organism-based, Macaca mulatta; details: rhesus monkey, in vivo
[29] = target: Tyrosine-protein kinase ABL1 (Homo sapiens) (UniProt P00519); assay: Inhibition of Abl1 up to 10 uM
[30] = target: RAC-gamma serine/threonine-protein kinase (Homo sapiens) (UniProt Q9Y243); assay: Inhibition of AKT3 up to 10 uM
[31] = target: RAF proto-oncogene serine/threonine-protein kinase (Homo sapiens) (UniProt P04049); assay: Inhibition of c-RAF up to 10 uM
RAF proto-oncogene serine/threonine-protein kinase (Homo sapiens), sequence (P04049 whole entry): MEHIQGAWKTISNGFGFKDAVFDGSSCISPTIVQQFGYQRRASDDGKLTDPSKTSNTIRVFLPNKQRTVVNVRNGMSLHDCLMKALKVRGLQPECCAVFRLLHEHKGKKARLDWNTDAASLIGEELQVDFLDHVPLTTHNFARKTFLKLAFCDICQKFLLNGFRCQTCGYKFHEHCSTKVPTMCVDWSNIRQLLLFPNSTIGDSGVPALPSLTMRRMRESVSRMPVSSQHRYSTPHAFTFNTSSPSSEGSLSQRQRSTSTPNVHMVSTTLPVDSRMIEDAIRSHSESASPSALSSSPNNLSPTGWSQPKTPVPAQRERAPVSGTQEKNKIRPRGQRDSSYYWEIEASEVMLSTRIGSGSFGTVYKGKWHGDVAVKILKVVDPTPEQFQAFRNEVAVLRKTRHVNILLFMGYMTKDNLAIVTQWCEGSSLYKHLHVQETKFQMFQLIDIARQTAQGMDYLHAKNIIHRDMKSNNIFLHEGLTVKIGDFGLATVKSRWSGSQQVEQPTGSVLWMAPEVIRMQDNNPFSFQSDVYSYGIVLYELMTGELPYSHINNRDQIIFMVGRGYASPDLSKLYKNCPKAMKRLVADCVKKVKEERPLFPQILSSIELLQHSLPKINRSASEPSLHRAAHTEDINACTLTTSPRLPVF

[32] = target: Calcium/calmodulin-dependent protein kinase type 1D (Homo sapiens) (UniProt Q8IU85); assay: Inhibition of CamK1delta up to 10 uM
[33] = target: Cyclin-dependent kinase 2/cyclin A (Homo sapiens) (UniProt P24941+P20248+P78396); assay: Inhibition of CDK2/cyclin A up to 10 uM; type: protein-complex assay
[34] = target: Hepatocyte growth factor receptor (Homo sapiens) (UniProt P08581); assay: Inhibition of c-Met up to 10 uM
Hepatocyte growth factor receptor (Homo sapiens), sequence (P08581 whole entry): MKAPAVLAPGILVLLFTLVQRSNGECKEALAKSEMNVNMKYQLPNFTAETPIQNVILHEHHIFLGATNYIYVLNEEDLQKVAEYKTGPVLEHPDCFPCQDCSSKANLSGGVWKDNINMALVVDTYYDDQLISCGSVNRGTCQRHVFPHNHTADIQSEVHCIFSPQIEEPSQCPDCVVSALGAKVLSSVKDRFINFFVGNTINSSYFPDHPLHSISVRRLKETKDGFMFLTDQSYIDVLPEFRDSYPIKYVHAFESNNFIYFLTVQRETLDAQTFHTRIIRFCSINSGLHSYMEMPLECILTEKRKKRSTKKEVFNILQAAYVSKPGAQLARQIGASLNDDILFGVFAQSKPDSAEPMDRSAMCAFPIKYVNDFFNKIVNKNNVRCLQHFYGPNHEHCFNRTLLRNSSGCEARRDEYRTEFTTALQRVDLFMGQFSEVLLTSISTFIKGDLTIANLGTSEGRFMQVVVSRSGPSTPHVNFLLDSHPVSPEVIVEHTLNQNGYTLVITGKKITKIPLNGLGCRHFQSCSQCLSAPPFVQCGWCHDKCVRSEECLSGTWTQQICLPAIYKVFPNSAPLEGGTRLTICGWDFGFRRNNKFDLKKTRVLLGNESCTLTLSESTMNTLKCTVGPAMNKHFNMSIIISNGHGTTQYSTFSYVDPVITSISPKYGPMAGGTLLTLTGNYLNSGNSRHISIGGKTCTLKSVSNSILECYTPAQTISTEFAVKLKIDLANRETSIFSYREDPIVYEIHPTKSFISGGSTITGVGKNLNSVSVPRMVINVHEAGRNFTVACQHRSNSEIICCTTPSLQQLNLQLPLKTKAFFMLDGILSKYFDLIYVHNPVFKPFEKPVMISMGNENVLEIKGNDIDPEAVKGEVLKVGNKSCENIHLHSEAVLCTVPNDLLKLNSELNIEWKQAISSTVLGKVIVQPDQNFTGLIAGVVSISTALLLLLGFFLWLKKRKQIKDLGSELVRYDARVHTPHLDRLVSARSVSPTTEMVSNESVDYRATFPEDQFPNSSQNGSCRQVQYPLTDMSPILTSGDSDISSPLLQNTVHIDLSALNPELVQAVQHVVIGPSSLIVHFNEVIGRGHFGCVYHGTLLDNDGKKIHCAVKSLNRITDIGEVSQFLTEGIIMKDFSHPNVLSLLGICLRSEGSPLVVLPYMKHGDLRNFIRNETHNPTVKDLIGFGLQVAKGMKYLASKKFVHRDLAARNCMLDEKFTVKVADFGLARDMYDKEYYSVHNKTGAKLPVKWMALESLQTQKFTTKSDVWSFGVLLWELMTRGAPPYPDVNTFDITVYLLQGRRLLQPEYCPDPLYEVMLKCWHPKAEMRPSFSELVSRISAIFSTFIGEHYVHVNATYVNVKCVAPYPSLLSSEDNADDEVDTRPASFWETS

[35] = target: Proto-oncogene tyrosine-protein kinase Src (Homo sapiens) (UniProt P12931); assay: Inhibition of c-SRC up to 10 uM
[36] = target: Epidermal growth factor receptor (Homo sapiens) (UniProt P00533); assay: Inhibition of EGFR up to 10 uM
Epidermal growth factor receptor (Homo sapiens), sequence (P00533 whole entry): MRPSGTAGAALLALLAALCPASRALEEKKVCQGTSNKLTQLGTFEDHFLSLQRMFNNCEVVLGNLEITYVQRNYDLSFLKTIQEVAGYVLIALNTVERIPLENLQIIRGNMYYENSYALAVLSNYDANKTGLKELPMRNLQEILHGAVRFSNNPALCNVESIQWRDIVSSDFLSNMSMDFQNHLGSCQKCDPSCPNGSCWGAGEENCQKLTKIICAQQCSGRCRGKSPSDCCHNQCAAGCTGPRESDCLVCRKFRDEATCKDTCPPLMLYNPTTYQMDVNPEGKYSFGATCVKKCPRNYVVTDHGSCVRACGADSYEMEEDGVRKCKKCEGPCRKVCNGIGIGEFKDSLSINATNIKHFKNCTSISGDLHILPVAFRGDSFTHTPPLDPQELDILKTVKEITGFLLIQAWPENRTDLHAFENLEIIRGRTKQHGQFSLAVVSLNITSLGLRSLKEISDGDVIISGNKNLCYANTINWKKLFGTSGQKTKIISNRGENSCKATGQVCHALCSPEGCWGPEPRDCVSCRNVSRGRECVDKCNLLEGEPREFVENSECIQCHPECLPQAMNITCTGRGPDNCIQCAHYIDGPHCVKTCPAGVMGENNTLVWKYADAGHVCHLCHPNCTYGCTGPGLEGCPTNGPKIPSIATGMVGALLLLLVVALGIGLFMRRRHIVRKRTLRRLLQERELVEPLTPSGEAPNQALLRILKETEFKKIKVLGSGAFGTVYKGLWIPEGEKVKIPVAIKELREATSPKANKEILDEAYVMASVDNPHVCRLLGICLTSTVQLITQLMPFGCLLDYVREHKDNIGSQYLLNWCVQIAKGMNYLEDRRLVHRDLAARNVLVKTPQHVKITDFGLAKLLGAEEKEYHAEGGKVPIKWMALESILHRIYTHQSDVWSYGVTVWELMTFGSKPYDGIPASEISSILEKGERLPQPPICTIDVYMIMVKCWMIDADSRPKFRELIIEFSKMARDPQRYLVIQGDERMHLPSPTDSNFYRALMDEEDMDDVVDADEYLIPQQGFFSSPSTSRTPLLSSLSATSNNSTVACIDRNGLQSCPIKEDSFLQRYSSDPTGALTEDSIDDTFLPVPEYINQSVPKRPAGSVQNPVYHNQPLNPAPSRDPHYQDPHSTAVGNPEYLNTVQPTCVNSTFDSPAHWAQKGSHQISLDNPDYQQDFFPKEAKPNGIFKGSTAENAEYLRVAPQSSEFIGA

[37] = target: Glycogen synthase kinase-3 beta (Homo sapiens) (UniProt P49841); assay: Inhibition of GSK3-beta up to 10 uM
[38] = target: Insulin receptor (Homo sapiens) (UniProt P06213); assay: Inhibition of IR up to 10 uM
[39] = target: Tyrosine-protein kinase JAK3 (Homo sapiens) (UniProt P52333); assay: Inhibition of JAK3 up to 10 uM
[40] = target: Mitogen-activated protein kinase 14 (Homo sapiens) (UniProt Q16539); assay: Inhibition of p38alpha up to 10 uM
[41] = target: Platelet-derived growth factor receptor beta (Homo sapiens) (UniProt P09619); assay: Inhibition of PDGFRbeta up to 10 uM
Platelet-derived growth factor receptor beta (Homo sapiens), sequence (P09619 whole entry): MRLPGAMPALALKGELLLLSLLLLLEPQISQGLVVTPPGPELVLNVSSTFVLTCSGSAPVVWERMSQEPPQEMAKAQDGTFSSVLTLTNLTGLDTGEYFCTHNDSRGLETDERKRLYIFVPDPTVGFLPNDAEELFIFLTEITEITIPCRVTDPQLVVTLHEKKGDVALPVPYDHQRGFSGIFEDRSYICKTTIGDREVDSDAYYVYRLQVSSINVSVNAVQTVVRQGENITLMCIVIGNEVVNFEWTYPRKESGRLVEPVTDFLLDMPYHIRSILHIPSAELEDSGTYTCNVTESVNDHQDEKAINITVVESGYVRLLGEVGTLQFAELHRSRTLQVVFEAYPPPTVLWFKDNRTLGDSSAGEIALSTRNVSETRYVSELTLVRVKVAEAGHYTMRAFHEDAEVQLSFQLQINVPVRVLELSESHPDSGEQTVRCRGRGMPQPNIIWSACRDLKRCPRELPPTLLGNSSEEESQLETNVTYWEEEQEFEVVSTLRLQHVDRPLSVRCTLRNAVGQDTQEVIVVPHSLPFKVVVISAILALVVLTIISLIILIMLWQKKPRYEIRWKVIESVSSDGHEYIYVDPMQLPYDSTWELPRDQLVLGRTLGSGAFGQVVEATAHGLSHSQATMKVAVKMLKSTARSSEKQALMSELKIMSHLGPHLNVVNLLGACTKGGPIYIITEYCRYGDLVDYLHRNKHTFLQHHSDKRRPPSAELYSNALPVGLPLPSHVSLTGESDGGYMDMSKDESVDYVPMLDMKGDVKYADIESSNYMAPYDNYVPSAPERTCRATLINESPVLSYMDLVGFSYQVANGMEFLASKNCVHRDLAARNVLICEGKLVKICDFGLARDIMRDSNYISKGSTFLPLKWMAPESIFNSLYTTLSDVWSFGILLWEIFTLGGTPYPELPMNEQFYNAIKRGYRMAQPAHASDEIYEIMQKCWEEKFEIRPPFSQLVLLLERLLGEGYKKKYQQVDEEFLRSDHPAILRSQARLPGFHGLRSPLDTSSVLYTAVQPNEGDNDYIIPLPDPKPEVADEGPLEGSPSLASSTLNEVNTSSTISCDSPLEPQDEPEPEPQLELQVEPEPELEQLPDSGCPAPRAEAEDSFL

[42] = target: [Pyruvate dehydrogenase (acetyl-transferring)] kinase isozyme 1, mitochondrial (Homo sapiens) (UniProt Q15118); assay: Inhibition of PDK1 up to 10 uM
[43] = target: Protein kinase C alpha type (Homo sapiens) (UniProt P17252); assay: Inhibition of PKCalpha up to 10 uM
[44] = target: Serine/threonine-protein kinase PLK3 (Homo sapiens) (UniProt Q9H4B4); assay: Inhibition of PLK3 up to 10 uM
[45] = target: Tyrosine-protein kinase SYK (Homo sapiens) (UniProt P43405); assay: Inhibition of Syk up to 10 uM
[46] = target: Angiopoietin-1 receptor (Homo sapiens) (UniProt Q02763); assay: Inhibition of Tie2 up to 10 uM

Compound `Cc1c(Nc2ccc(I)cc2F)c2c(=O)n(C[C@@H](O)CO)cnc2n(C)c1=O` has an EC50 [1] of 7.4 nM, an EC50 [2] of 7.9 nM and a half-life [3] of 1.95 h. The half-life [4] was 1.97 h.
With `Cn1c(=O)c(Cl)c(Nc2ccc(I)cc2F)c2c(=O)n(C[C@@H](O)CO)cnc21` the EC50 [1] was 25 nM, the EC50 [2] was 10 nM and the half-life [3] was 0.367 h. The half-life [4] was greater than 3.33 h and the IC50 [5] was 5.9 nM.
`Cn1c(=O)cc(Nc2ccc(I)cc2F)c2c(=O)n(C[C@@H](O)CCO)cnc21` gave an EC50 [1] of 479 nM, an EC50 [2] of 142 nM and a half-life [3] greater than 3.33 h. For the same compound, the half-life [4] was 0.667 h.
Work on `Cn1c(=O)c(F)c(Nc2ccc(I)cc2F)c2c(=O)n(CCO)cnc21` yielded an EC50 [1] of 6.3 nM, an EC50 [2] of 3.7 nM and a half-life [3] of 0.85 h. It also gave a half-life [4] of 0.483 h.
`Cc1c(Nc2ccc(I)cc2F)c2c(=O)n(CCO)cnc2n(C)c1=O` gave an EC50 [1] of 18 nM, an EC50 [2] of 9 nM and a half-life [3] greater than 3.33 h. For the same compound, the half-life [4] was greater than 3.33 h and the IC50 [5] was 4 nM.
Work on `CN(C)CCn1cnc2c(c(Nc3ccc(I)cc3F)cc(=O)n2C)c1=O` yielded a half-life [3] of 0.483 h, a half-life [4] of 0.133 h and an IC50 [5] of 740 nM.
`Cn1c(=O)c(F)c(Nc2ccc(Br)cc2F)c2c(=O)n(C[C@@H](O)CO)cnc21` showed an EC50 [1] of 50 nM, an EC50 [2] of 38 nM and a half-life [3] of 3.13 h. For the same compound, the half-life [4] was 0.817 h.
For `Cn1c(=O)c(F)c(Nc2ccc(I)cc2F)c2c(=O)n(OC[C@H](O)CO)cnc21`, the EC50 [1] was 3 nM, the EC50 [2] was 1 nM and the half-life [3] was 0.583 h. For the same compound, the half-life [4] was 0.467 h and the IC50 [5] was 3.1 nM.
For `C#Cc1ccc(Nc2c(F)c(=O)n(C)c3ncn(C[C@@H](O)CO)c(=O)c23)c(F)c1`, the EC50 [1] was 11 nM, the EC50 [2] was 10 nM and the half-life [3] was 0.817 h. It also gave a half-life [4] of 0.55 h and an IC50 [5] of 4.8 nM.
`Cc1c(Nc2ccc(I)cc2F)c2c(=O)n(C[C@H](O)CO)cnc2n(C)c1=O` showed an EC50 [1] of 8 nM, an EC50 [2] of 13 nM and a half-life [3] greater than 3.33 h. It also gave a half-life [4] greater than 3.33 h.
Compound `Cn1c(=O)cc(Nc2ccc(I)cc2F)c2c(=O)n(CCCO)cnc21` has an EC50 [1] of 23 nM, an EC50 [2] of 16 nM and a half-life [3] greater than 3.33 h. It also gave a half-life [4] of 0.333 h and an IC50 [5] of 4.9 nM.
For `Cn1c(=O)c(F)c(Nc2ccc(I)cc2F)c2c(=O)n(C[C@H](O)CO)cnc21`, the EC50 [1] was 3 nM, the EC50 [2] was 2.6 nM and the half-life [3] was 3.05 h. It also gave a half-life [4] of 1.52 h and an IC50 [5] of 3.2 nM.
Work on `Cn1cnc2c(c(Nc3ccc(I)cc3F)cc(=O)n2C)c1=O` yielded an EC50 [1] of 86 nM, an EC50 [2] of 49 nM and a half-life [3] greater than 3.33 h. It also gave a half-life [4] of 0.217 h.
With `Cn1c(=O)cc(Nc2ccc(I)cc2F)c2c(=O)n(CCO)cnc21` the EC50 [1] was 60 nM, the EC50 [2] was 38 nM and the half-life [3] was 0.617 h. For the same compound, the half-life [4] was 0.183 h.
Compound `Cn1c(=O)c(F)c(Nc2ccc(I)cc2F)c2c(=O)n(C(CO)CO)cnc21` has an EC50 [1] of 8 nM, an EC50 [2] of 3.5 nM and a half-life [3] of 0.517 h. The half-life [4] was 0.8 h and the IC50 [5] was 3.3 nM.
In the case of `Cn1c(=O)cc(Nc2ccc(I)cc2F)c2c(=O)n(C[C@@H](O)CO)cnc21`, the EC50 [1] is reported as 26 nM, the EC50 [2] is reported as 27 nM and the half-life [3] is reported as 0.8 h. The half-life [4] was 0.417 h.
`Cn1c(=O)cc(Nc2ccc(I)cc2F)c2c(=O)n(C[C@H](O)CO)cnc21` showed an EC50 [1] of 40 nM, an EC50 [2] of 38 nM and a half-life [3] greater than 3.33 h. The half-life [4] was greater than 3.33 h.
With `Cn1c(=O)c(F)c(Nc2ccc(I)cc2F)c2c(=O)n(C[C@@H](O)CO)cnc21` [TAK-733] the EC50 [1] was 3.1 nM, the EC50 [2] was 2.1 nM and the half-life [3] was 2.38 h. The half-life [4] was 2.25 h, the fraction unbound [6] was 0.03 and the fraction unbound [7] was 0.04. For the same compound, the “inhibition (INH)” value [8] was “Not Active”, the clearance [9] was 17.2 mL/min/kg and the Vd [10] was 1.96 L/kg. The MRT [11] was 1.9 h, the MRT [12] was 4.6 h and the bioavailability [13] was 67%. For the same compound, the clearance [14] was 13.7 mL/min/kg, the Vd [15] was 1.64 L/kg and the MRT [16] was 2 h. It also gave an MRT [17] of 11.5 h, a bioavailability [18] of 71% and a clearance [19] of 5.9 mL/min/kg. For the same compound, the Vd [20] was 3.07 L/kg, the MRT [21] was 8.9 h and the MRT [22] was 12.9 h. For the same compound, the bioavailability [23] was 76%, the clearance [24] was 11.1 mL/min/kg and the Vd [25] was 3.75 L/kg. It also gave an MRT [26] of 5.8 h, an MRT [27] of 23.8 h and a bioavailability [28] greater than 38%. For the same compound, the inhibition [29] was “inactive”, the inhibition [30] was “inactive” and the inhibition [31] was “inactive”. The inhibition [32] was “inactive”, the inhibition [33] was “inactive” and the inhibition [34] was “inactive”. For the same compound, the inhibition [35] was “inactive”, the inhibition [36] was “inactive” and the inhibition [37] was “inactive”. The inhibition [38] was “inactive”, the inhibition [39] was “inactive” and the inhibition [40] was “inactive”. For the same compound, the inhibition [41] was “inactive”, the inhibition [42] was “inactive” and the inhibition [43] was “inactive”. The inhibition [44] was “inactive”, the inhibition [45] was “inactive” and the inhibition [46] was “inactive”. The IC50 [5] was 3.2 nM.
